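Cultured in 96-well plates, cells were exposed to test compound for 48 hours across five concentrations. GI50 is the concentration that inhibits growth by half. TGI: concentration producing complete growth inhibition.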
Assays:
Test in all cases: inhibition of tumour cell growth, NCI panel, 48 h
HS 578T breast = system: HS 578T breast
NCI-H226 lung = system: NCI-H226 lung
OVCAR-5 ovarian = system: OVCAR-5 ovarian
SF-295 CNS = system: SF-295 CNS
NCI-H522 lung = system: NCI-H522 lung
TK-10 renal = system: TK-10 renal
SF-539 CNS = system: SF-539 CNS
MALME-3M melanoma = system: MALME-3M melanoma
SK-OV-3 ovarian = system: SK-OV-3 ovarian
OVCAR-3 ovarian = system: OVCAR-3 ovarian
M14 melanoma = system: M14 melanoma
T-47D breast = system: T-47D breast
SK-MEL-2 melanoma = system: SK-MEL-2 melanoma
OVCAR-8 ovarian = system: OVCAR-8 ovarian
MDA-MB-231 breast = system: MDA-MB-231 breast
RPMI-8226 leukemia = system: RPMI-8226 leukemia
SR leukemia = system: SR leukemia
MOLT-4 leukemia = system: MOLT-4 leukemia
NCI-H460 lung = system: NCI-H460 lung
U251 CNS = system: U251 CNS
LOX IMVI melanoma = system: LOX IMVI melanoma
RXF 393 renal = system: RXF 393 renal
SK-MEL-28 melanoma = system: SK-MEL-28 melanoma
KM12 colon = system: KM12 colon
COLO 205 colon = system: COLO 205 colon
NCI/ADR-RES ovarian = system: NCI/ADR-RES ovarian
HOP-92 NSCLC = system: HOP-92 NSCLC
HCT-15 colon = system: HCT-15 colon

Compound: C/C(=N\NC(=O)CSc1nc2sc3c(c2c(=O)n1-c1ccccc1)CCC(C)C3)c1ccc(Cl)cc1 (stereo unspecified)
- GI50 (HS 578T breast): 8.85 µM
- TGI (HS 578T breast): > 100 µM
- GI50 (NCI-H226 lung): 13 µM
- TGI (NCI-H226 lung): 52.7 µM
- GI50 (OVCAR-5 ovarian): 3.52 µM
- TGI (OVCAR-5 ovarian): > 100 µM
- GI50 (SF-295 CNS): 4.18 µM
- TGI (SF-295 CNS): > 100 µM
- GI50 (NCI-H522 lung): 3.39 µM
- TGI (NCI-H522 lung): 39.1 µM
- GI50 (TK-10 renal): 4.64 µM
- TGI (TK-10 renal): > 100 µM
- GI50 (SF-539 CNS): 0.866 µM
- TGI (SF-539 CNS): 4.02 µM
- GI50 (MALME-3M melanoma): 11.8 µM
- TGI (MALME-3M melanoma): > 100 µM
- GI50 (SK-OV-3 ovarian): 3.68 µM
- TGI (SK-OV-3 ovarian): 36.5 µM
- GI50 (OVCAR-3 ovarian): 3.33 µM
- TGI (OVCAR-3 ovarian): > 100 µM
- GI50 (M14 melanoma): 2.34 µM
- TGI (M14 melanoma): 14.1 µM
- GI50 (T-47D breast): 3.55 µM
- TGI (T-47D breast): 68 µM
- GI50 (SK-MEL-2 melanoma): 2.31 µM
- TGI (SK-MEL-2 melanoma): 14.7 µM
- GI50 (OVCAR-8 ovarian): 3.31 µM
- TGI (OVCAR-8 ovarian): 84.7 µM
- GI50 (MDA-MB-231 breast): 4.67 µM
- TGI (MDA-MB-231 breast): > 100 µM
- GI50 (RPMI-8226 leukemia): 2.83 µM
- TGI (RPMI-8226 leukemia): > 100 µM
- GI50 (SR leukemia): 0.735 µM
- TGI (SR leukemia): > 100 µM
- GI50 (MOLT-4 leukemia): 0.575 µM
- TGI (MOLT-4 leukemia): > 100 µM
- GI50 (NCI-H460 lung): 1.16 µM
- TGI (NCI-H460 lung): > 100 µM
- GI50 (U251 CNS): 1.98 µM
- TGI (U251 CNS): > 100 µM
- GI50 (LOX IMVI melanoma): 0.348 µM
- TGI (LOX IMVI melanoma): 15.7 µM
- GI50 (RXF 393 renal): 1.53 µM
- TGI (RXF 393 renal): 8.71 µM
- GI50 (SK-MEL-28 melanoma): 7.76 µM
- TGI (SK-MEL-28 melanoma): > 100 µM
- GI50 (KM12 colon): 2.66 µM
- TGI (KM12 colon): > 100 µM
- GI50 (COLO 205 colon): 2.94 µM
- TGI (COLO 205 colon): 17.5 µM
- GI50 (NCI/ADR-RES ovarian): 2.63 µM
- TGI (NCI/ADR-RES ovarian): 12.6 µM
- GI50 (HOP-92 NSCLC): 1.33 µM
- TGI (HOP-92 NSCLC): 9.88 µM
- GI50 (HCT-15 colon): 0.387 µM
- TGI (HCT-15 colon): 25.7 µM

Source: PubChem BioAssay (NCI)
